According to the NIST ThermoML archive (doi:10.1016/j.jct.2014.03.029):

How the values were obtained:
[1] = molar heat capacity at constant pressure; xn = mol fraction of the nth substance listed; conditions: 100 kPa, Liquid, Small sample (50 mg) DSC
[2] = Crystal; DTA
[3] = Molar enthalpy of transition or fusion; conditions: Crystal; DSC
[4] = molar heat capacity at constant pressure; conditions: 100 kPa, Liquid, Small sample (50 mg) DSC

c1ccc(-c2ccccc2)cc1 [biphenyl] + c1ccc(Oc2ccccc2)cc1
[1], x2 = 0
Conditions | molar heat capacity at constant pressure [J/K/mol]
353.15 K | 271.56
373.15 K | 280.81

c1ccc(Oc2ccccc2)cc1 [diphenyl ether]
Conditions | Molar enthalpy of transition or fusion [kcal/mol] | Normal melting temperature [°C]
[2] | – | 26.98
[3] | 4.07 | –

[4]
Conditions | molar heat capacity at constant pressure [J/K/mol]
313.15 K | 261.61
333.15 K | 272.33
353.15 K | 281.69
373.15 K | 290.88

c1ccc(Oc2ccccc2)cc1 [diphenyl ether] + c1ccc(-c2ccccc2)cc1
molar heat capacity at constant pressure [J/K/mol], [1]
Conditions | x1 = 0.05 | x1 = 0.15 | x1 = 0.2499 | x1 = 0.4 | x1 = 0.55 | x1 = 0.705 | x1 = 0.85 | x1 = 0.95 | x1 = 1
293.15 K | – | – | – | – | – | 263.62 | – | – | –
313.15 K | – | – | – | – | 271.57 | 271.4 | 267.65 | 262.24 | 261.61
333.15 K | – | – | 270.37 | 273.51 | 278.25 | 279.18 | 276.55 | 272.24 | 272.33
353.15 K | 272.81 | 277.2 | 279.39 | 282.35 | 285.59 | 286.13 | 285.61 | 281.72 | 281.69
373.15 K | 282.42 | 285.5 | 286.99 | 290.38 | 292.44 | 293.24 | 294.5 | 290.87 | 290.88

c1ccc(-c2ccccc2)cc1 [biphenyl]
Conditions | Molar enthalpy of transition or fusion [kcal/mol] | Normal melting temperature [°C]
[2] | – | 69.0
[3] | 4.43 | –

[4]
Conditions | molar heat capacity at constant pressure [J/K/mol]
353.15 K | 271.56
373.15 K | 280.81
